Publication PMC10762068, “Selective blockade of Cav1.2 (α1C) versus Cav1.3 (α1D) L-type calcium channels by the black mamba toxin calciseptine” (Nature Communications, 2024)
“Also recorded” adds a separate entry of the source. Positions of bridges follow the written chain, without caps; N, C: chain ends. No end group written: not given here.

How the values were obtained:
[1] = test system: Cav1.3_42; experiment: Whole cell recording of ICav1.3-42 in HEK-293T cells; format: cell-based; details: for L-type Ca2+ current density: mean ± SEM, n=6
Procedure: HEK-293T (RRID:CVCL_2737) were obtained from the European Collection of Authenticated Cell Cultures (ECACC 96121229). The identity of HEK-293T has been confirmed by STR profiling and the cells have been eradicated from mycoplasma at ECACC. We routinely tested the cells for the absence of the mycoplasma contamination. Cells were cultivated at 37 °C in DMEM supplemented with GlutaMax, 10% fetal bovine serum and 1% penicillin/streptomycin (Invitrogen, Fisher Scientific, France). Transfections were performed using jet-PEI (Ozyme, France) with a DNA mix containing either the plasmids that code for Cav1.2-GFP, β2a and α2δ (0.8 µg of each) or either the plasmids that code for Cav1.3 (with and without exon 42a), or Cav2.1, or either Cav2.2 combined with β2a and α2δ (0.8 µg of each supplemented with 0.025 µg of a plasmid coding for GFP). For Cav3.1 expression β2a and α2δ subunits were omitted. Plasmids coding for β2a, α2δ and Cav1.3 were created as described previously. Plasmid coding for Cav1.2-GFP was obtained from Dr. Catalucci[60]. After transfection cells were placed at 30 °C for 2–3 days and dissociated with Versene (Invitrogen, Fisher Scientific, France) and plated at a density of ~35 × 10^3 cells per 35 mm Petri dish for electrophysiological recordings, which were performed the following day.
Macroscopic currents in HEK-293T cells were recorded at room temperature using an Axopatch 200B or Multiclamp 700B patchclamp amplifier (Molecular Devices, Sunnyvale CA). […] The extracellular solution contained (in mM): 135 NaCl, 20 TEACl, 5 BaCl2, 1 MgCl2, and 10 HEPES (pH adjusted to 7.25 with KOH, ~330 mOsm).
In all experiments of cellular electrophysiology, we employed synthetized analog of Cas, commercially available at Latoxan (ID: L8109). The native peptide was purified from the venom of Dendroaspis polylepis purchased from Latoxan, as previoulsly described. The pure peptide was obtained after gel filtration, cation exchange and C18 reversed phase chromatography. Its measured molecular mass (7036.26 Da average) was in accordance with the mass calculated from sequence data (7036.22 Da).

[2] = test system: human ether-a-go-go-related gene (hERG); experiment: hERG current in Xenopus oocytes; format: cell-based; details: Cas 1 µM, n=5, Xenopus oocytes, 19-20 °C
Procedure: Xenopus laevis specimen were purchased from Tefor Paris Saclay. Animal handling and experiments fully conformed to French regulations and were approved by local governmental veterinary services (authorization number E06-152-5 delivered by the Ministère de l’Agriculture, Direction des Services Vétérinaires). Animals were anesthetized by exposure for 20 min to a 0.1% solution of 3-aminobenzoic acid ethyl ester (MS-222) (Sigma) buffered at pH 7.4. Oocytes were surgically removed and dissected away in a saline solution (ND96) containing (in mM) 96 NaCl, 2 KCl, 1.8 CaCl2, 2 MgCl2, and 5 HEPES at pH 7.4 with NaOH. Stage V and VI oocytes were treated for 3 h with collagenase (1 mg/ml, type Ia, Sigma) in the presence of trypsin inhibitor (Sigma) in ND96 to discard follicular cells. pSI-HERG plasmid solutions were injected in nucleus (100 ng/µl, 23 nl/oocyte) using a pressure microinjector. The oocytes were kept at 19 °C in the ND96 saline solution supplemented with penicillin (10 mg/L) and streptomycin (20 mg/L). Oocytes were studied within 2 days following injection of plasmid. In a 0.3-ml perfusion chamber, a single oocyte was impaled with two standard glass microelectrodes (1–2.5 MΩ resistance) filled with 3 M KCl and maintained under voltage- clamp using a Dagan TEV 200 amplifier. […]

[3] = test system: DHP-sensitive Ca2+ channel in smooth muscle cells of the guinea-pig portal vein; details: cell-attached, 90 mM Ba2+ in the pipette; ref Teramoto et al, Pflugers Arch 1996; cited from earlier work
From the text: This po int deserves further specific investigations and addit ional structural studies are required to elucidate the interaction and binding properties between Cas and Cav1.2 channel.

RICYIHKASLPRATKTCVENTCYKMFIRTQREYISERGCGCPTAMWPYQTECCKGDRCNK (disulfide 3-22, 17-39, 41-52, 53-58 (inferred)) [Cas, calciseptine]
reduction of Ca current, long form of Cav1.3 (Cav1.3L) ([1]; Cas 300 nM and 1 µM): did not observe any reduction | effect on ICav1.3-42 (I-V relationship) ([1]; Cas 300 nM, all voltages tested, at peak p = 0.5696, n=6/N=3): no significant effect | L-type Ca2+ current density ([1]; Cas 300 nM, 0 mV, Ctrl -15.10± 3.34): -14.76± 4.28 pA/pF | L-type Ca2+ current density ([1]; Cas 300 nM, +10 mV, Ctrl -12.01± 2.36): -11.09± 3.45 pA/pF | L-type Ca2+ current density ([1]; Cas 300 nM, +20 mV, Ctrl -6.20± 1.35): -6.12± 2.78 pA/pF | L-type Ca2+ current density ([1]; Cas 300 nM, +30 mV, Ctrl -3.03± 0.66): -2.96± 2.36 pA/pF | L-type Ca2+ current density ([1]; Cas 300 nM, -10 mV, Ctrl -15.68± 3.76): -15.81± 4.50 pA/pF | L-type Ca2+ current density ([1]; Cas 300 nM, -20 mV, Ctrl -12.28± 3.31): -12.95± 3.93 pA/pF | reduction of ICav1.3-42 ([1]; all concentrations tested (up to 1 µM), holding −60 mV, step 0 mV, 300 nM n=6/N=3, 1 µM n=7/N=3): did not record a statistically significant reduction | effect on hERG current [2]: did not record any difference; also recorded: had no effect | block of 25-pS and 12-pS channel conductances [3]: Both conductances were blocked
